Experimental data published in the supplement of paper PMC10307832.

Experiments:
Test in all cases: relative viability (nuclei count vs DMSO), 5 days (fraction); higher = more cells survive
[1] = compound: CO[C@H]1C[C@@H]2CC[C@@H](C)[C@@](O)(O2)C(=O)C(=O)N2CCCC[C@H]2C(=O)O[C@H]([C@H](C)C[C@@H]2CC[C@@H](OCCO)[C@H](OC)C2)CC(=O)[C@H](C)/C=C(\C)[C@@H](O)[C@@H](OC)C(=O)[C@H](C)C[C@H](C)/C=C/C=C/C=C/1C [Everolimus] + CCNC(=O)c1noc(-c2cc(C(C)C)c(O)cc2O)c1-c1ccc(CN2CCOCC2)cc1 [Luminespib] (partner 0.01 µM)
Outline: (§1)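 Cells from lung cancer lines were seeded into 1536-well plates and, one day later, dosed by pin tool. Treatments were either a single drug or a fixed dose of an anchor drug with five library-drug doses (not always all listed) in √10 steps. After 5 days, nuclei were stained in a one-step fixation (final 0.05% Triton X-100, 1% formaldehyde, 1 ug/ml Hoechst) and counted on 4× images, and relative viability is the treated-to-vehicle nuclei ratio, as the median of duplicate plates.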

[2] = compound: CO[C@H]1C[C@@H]2CC[C@@H](C)[C@@](O)(O2)C(=O)C(=O)N2CCCC[C@H]2C(=O)O[C@H]([C@H](C)C[C@@H]2CC[C@@H](OCCO)[C@H](OC)C2)CC(=O)[C@H](C)/C=C(\C)[C@@H](O)[C@@H](OC)C(=O)[C@H](C)C[C@H](C)/C=C/C=C/C=C/1C [Everolimus] + CS(=O)(=O)CCNCc1ccc(-c2ccc3ncnc(Nc4ccc(OCc5cccc(F)c5)c(Cl)c4)c3c2)o1 [Lapatinib] (partner 2 µM)
Outline: as §1

[3] = compound: CO[C@H]1C[C@@H]2CC[C@@H](C)[C@@](O)(O2)C(=O)C(=O)N2CCCC[C@H]2C(=O)O[C@H]([C@H](C)C[C@@H]2CC[C@@H](OCCO)[C@H](OC)C2)CC(=O)[C@H](C)/C=C(\C)[C@@H](O)[C@@H](OC)C(=O)[C@H](C)C[C@H](C)/C=C/C=C/C=C/1C [Everolimus] + C[C@]1(O)C[C@@H](c2nc(-c3ccc4ccc(-c5ccccc5)nc4c3)c3c(N)nccn32)C1 [Linsitinib] (partner 1 µM)
Outline: as §1

[4] = compound: CO[C@H]1C[C@@H]2CC[C@@H](C)[C@@](O)(O2)C(=O)C(=O)N2CCCC[C@H]2C(=O)O[C@H]([C@H](C)C[C@@H]2CC[C@@H](OCCO)[C@H](OC)C2)CC(=O)[C@H](C)/C=C(\C)[C@@H](O)[C@@H](OC)C(=O)[C@H](C)C[C@H](C)/C=C/C=C/C=C/1C [Everolimus] + COc1cccc2cc(-c3nc([C@H]4CC[C@H](C(=O)O)CC4)n4ncnc(N)c34)[nH]c12 [OSI-027] (partner 0.5 µM)
Outline: as §1

| Cell Line | relative viability ([1]; first compound 0.01 µM) | relative viability ([1]; first compound 0.03162 µM) | relative viability ([1]; first compound 0.1 µM) | relative viability ([1]; first compound 0.3162 µM) | relative viability ([1]; first compound 1 µM) | relative viability ([2]; first compound 0.01 µM) | relative viability ([2]; first compound 0.03162 µM) | relative viability ([2]; first compound 0.1 µM) | relative viability ([2]; first compound 0.3162 µM) | relative viability ([2]; first compound 1 µM) | relative viability ([3]; first compound 0.01 µM) | relative viability ([3]; first compound 0.03162 µM) | relative viability ([3]; first compound 0.1 µM) | relative viability ([3]; first compound 0.3162 µM) | relative viability ([3]; first compound 1 µM) | relative viability ([4]; first compound 0.01 µM) | relative viability ([4]; first compound 0.03162 µM) | relative viability ([4]; first compound 0.1 µM) | relative viability ([4]; first compound 0.3162 µM) | relative viability ([4]; first compound 1 µM) |
| --- | --- | --- | --- | --- | --- | --- | --- | --- | --- | --- | --- | --- | --- | --- | --- | --- | --- | --- | --- | --- |
| NCI-H322M | 0.579 | 0.568 | 0.387 | 0.554 | 0.543 | 0.547 | 0.545 | 0.601 | 0.526 | 0.508 | 0.87 | 0.695 | 0.683 | 0.739 | 0.645 | 0.425 | 0.501 | 0.473 | 0.433 | 0.495 |
| NCI-H2347 | 0.497 | 0.367 | 0.301 | 0.332 | 0.362 | 0.813 | 1.07 | 0.663 | 0.868 | 0.811 | 0.912 | 0.911 | 0.581 | 0.798 | 0.769 | 0.382 | 0.253 | 0.326 | 0.501 | 0.34 |
| NCI-H1975 | 0.158 | 0.169 | 0.194 | 0.191 | 0.287 | 0.788 | 0.669 | 0.669 | 0.762 | 0.676 | 0.747 | 0.618 | 0.672 | 0.665 | 0.597 | 0.496 | 0.498 | 0.45 | 0.473 | 0.436 |
| UMC-11 | 0.328 | 0.348 | 0.385 | 0.343 | 0.366 | 0.373 | 0.326 | 0.306 | 0.433 | 0.438 | 0.443 | 0.391 | 0.419 | 0.388 | 0.393 | 0.272 | 0.288 | 0.257 | 0.297 | 0.277 |
| ABC-1 |  | 0.342 | 0.316 | 0.371 | 0.355 | 0.925 | 1.13 | 0.751 | 0.816 | 0.873 | 0.599 | 0.351 | 0.55 | 0.446 | 0.535 | 0.342 | 0.281 | 0.279 | 0.357 | 0.316 |
| A-427 | 0.584 | 0.611 | 0.651 | 0.779 | 0.729 | 0.811 | 0.902 | 0.645 | 0.768 | 0.85 | 0.854 | 0.772 | 0.823 | 0.675 | 0.834 | 0.449 | 0.457 | 0.333 | 0.398 | 0.432 |
| LCLC-97TM1 | 0.76 | 0.743 | 0.549 | 0.581 | 0.769 | 0.611 | 0.869 | 0.759 | 0.817 | 0.852 | 0.141 | 0.142 | 0.147 | 0.129 | 0.151 | 0.455 | 0.362 | 0.36 | 0.337 | 0.458 |
| HCC-15 | 0.45 | 0.449 | 0.368 | 0.387 | 0.191 | 0.899 | 0.899 | 0.881 | 0.981 | 0.871 | 0.787 | 0.777 | 0.692 | 0.739 | 0.653 | 0.502 | 0.517 | 0.447 | 0.543 | 0.546 |
| NCI-H647 | 0.11 | 0.143 | 0.111 | 0.107 | 0.142 | 0.583 | 0.562 | 0.505 | 0.536 | 0.87 | 0.629 | 0.76 | 0.58 | 0.647 | 0.653 | 0.363 | 0.401 | 0.343 | 0.449 | 0.489 |
| SW 1573 | 0.172 | 0.181 | 0.359 | 0.215 | 0.216 | 0.649 | 0.705 | 0.627 | 0.686 | 0.572 | 0.615 | 0.454 | 0.506 | 0.401 | 0.386 | 0.42 | 0.309 | 0.352 | 0.345 | 0.365 |
| NCI-H1651 | 0.589 | 0.531 | 0.612 | 0.575 | 0.567 | 0.537 | 0.391 | 0.497 | 0.533 | 0.521 | 0.586 | 0.538 | 0.495 | 0.495 | 0.454 | 0.411 | 0.439 | 0.384 | 0.41 | 0.58 |
| NCI-H1792 | 0.295 | 0.24 | 0.21 | 0.229 | 0.217 | 0.637 | 0.656 | 0.679 | 0.593 | 0.734 | 0.449 | 0.38 | 0.202 | 0.148 | 0.159 | 0.646 | 0.489 | 0.427 | 0.421 | 0.362 |
| NCI-H2023 | 0.309 | 0.269 | 0.413 | 0.266 | 0.219 | 0.604 | 0.456 | 0.378 | 0.616 | 0.314 | 0.301 | 0.323 | 0.303 | 0.282 | 0.219 | 0.197 | 0.25 | 0.178 | 0.153 | 0.158 |
| COR-L 105 | 0.405 | 0.392 | 0.333 | 0.313 | 0.365 | 0.351 | 0.288 | 0.316 | 0.38 | 0.262 | 0.743 | 0.604 | 0.585 | 0.686 | 0.504 | 0.43 | 0.418 | 0.366 | 0.457 | 0.445 |
| NCI-H1734 | 0.176 | 0.211 | 0.185 | 0.184 | 0.208 | 0.715 | 0.582 | 0.582 | 0.551 | 0.73 | 0.416 | 0.568 | 0.518 | 0.467 | 0.575 | 0.408 | 0.411 | 0.365 | 0.417 | 0.423 |
| NCI-H3122 | 0.105 | 0.0862 | 0.0973 | 0.113 | 0.0788 | 1.09 | 1.16 | 1.06 | 1.07 | 0.951 | 0.791 | 0.822 | 0.621 | 0.528 | 0.761 | 0.463 | 0.579 | 0.315 | 0.454 | 0.488 |
| CAL-12T | 0.146 | 0.138 | 0.173 | 0.159 | 0.212 | 0.483 | 0.426 | 0.33 | 0.463 | 0.433 | 0.452 | 0.56 | 0.447 | 0.616 | 0.562 | 0.221 | 0.299 | 0.25 | 0.309 | 0.296 |
| NCI-H2085 | 0.258 | 0.28 | 0.349 | 0.319 | 0.304 | 0.489 | 0.364 | 0.434 | 0.506 | 0.486 | 0.735 | 0.522 | 0.519 | 0.509 | 0.484 | 0.457 | 0.454 | 0.257 | 0.476 | 0.438 |
